Laboratory results: patent US7855292B2, “Sulfonamide compounds” (Janssen Pharmaceutica NV, priority 2004, dated 2010)

What was measured:
CCK2 receptor = molecular target: T1, CCK2 receptor (Cavia porcellus, UniProt H0VZC5); assay: Guinea-pig gastric corpeal muscle assay (pentagastrin-induced contraction); details: isolated guinea-pig gastric corpeal muscle strips, pentagastrin concentration-response curves
T1 construct: strips of muscle were dissected and suspended in isolated tissue organ baths; from tissue; host or cells: guinea-pig gastric corpeal muscle strips
T1 sequence (H0VZC5 1-426): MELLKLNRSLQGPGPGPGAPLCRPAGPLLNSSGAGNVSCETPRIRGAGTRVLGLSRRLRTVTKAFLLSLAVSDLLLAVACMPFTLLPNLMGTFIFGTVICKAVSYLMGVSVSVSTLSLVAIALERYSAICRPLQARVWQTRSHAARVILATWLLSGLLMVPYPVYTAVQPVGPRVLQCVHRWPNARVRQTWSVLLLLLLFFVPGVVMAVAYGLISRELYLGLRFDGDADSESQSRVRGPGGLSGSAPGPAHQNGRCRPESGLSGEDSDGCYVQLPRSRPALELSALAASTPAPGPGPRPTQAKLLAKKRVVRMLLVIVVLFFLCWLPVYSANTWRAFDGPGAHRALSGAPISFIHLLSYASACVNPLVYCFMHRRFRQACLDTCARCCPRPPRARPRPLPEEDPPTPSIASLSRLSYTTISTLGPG
Procedure: B. Guinea-Pig Gastric Corpeal Muscle Assay
CCK2 receptor-mediated muscle contraction was measured in an isolated muscle-strip assay of guinea-pig gastric corpeal muscle according to the methods described by Roberts et al. (S. P. Roberts, E. A. Harper, G. F. Watt, V. P. Gerskowitch, R. A. Hull, N. P. Shankley, and J. W. Black, Br. J. Pharmacol., 1996, 118(7):1779-1789). In brief, strips of muscle were dissected and suspended in isolated tissue organ baths for isotonic muscle contraction recording. The baths, containing Krebs-Henseleit solution, were maintained at 24° C. and gassed continuously with 95% O2 and 5% CO2. CCK1 receptors known to be present in this assay were blocked using a selective concentration of a suitable CCK1 receptor antagonist (e.g. 2-NAP). The effectiveness of the test compounds was assessed by measuring their effect on contractile concentration-response curves obtained using a well-characterized surrogate for the hormone gastrin (pentagastrin).

CCK-1 receptor = molecular target: T2, CCK-1 receptor (Homo sapiens, UniProt P32238); assay: CCK1 binding assay ([125I]-BH-CCK-8S displacement, CHO-K1 membranes); details: membranes of CHO-K1 cells stably transfected with the CCK-1 receptor; 20 pM [125I]-BH-CCK-8S; 0.3 μM PD-134,308 present; 60 min at 21±3° C.
T2 construct: expressed in transfected cells; host or cells: CHO-K1
T2 sequence (P32238 1-428): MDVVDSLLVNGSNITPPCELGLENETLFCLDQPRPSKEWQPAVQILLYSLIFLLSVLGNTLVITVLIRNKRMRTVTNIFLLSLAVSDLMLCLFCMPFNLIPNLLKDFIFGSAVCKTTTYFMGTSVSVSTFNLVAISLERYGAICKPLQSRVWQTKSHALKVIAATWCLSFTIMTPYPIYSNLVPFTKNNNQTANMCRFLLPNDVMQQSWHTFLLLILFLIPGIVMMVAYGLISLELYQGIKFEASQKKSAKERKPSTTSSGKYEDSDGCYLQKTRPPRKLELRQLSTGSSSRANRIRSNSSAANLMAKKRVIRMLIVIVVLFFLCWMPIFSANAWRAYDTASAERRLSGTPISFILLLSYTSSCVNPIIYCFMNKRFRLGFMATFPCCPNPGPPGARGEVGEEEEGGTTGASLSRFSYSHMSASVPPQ
Method in brief: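 Membranes from CHO-K1 cells stably expressing CCK-1 incubated 1 h at 21±3° C with 20 pM [125I]-BH-CCK-8S in HEPES buffer pH 7.2 containing 0.3 μM PD-134,308 to block CCK-2. Bound radioactivity read by gamma counting after filtration. pKi derived via Cheng-Prusoff, with specific binding defined using 2-NAP.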

O=C(N[C@@H](Cc1ccc(Cl)c(Cl)c1)C(=O)O)c1ccc(I)cc1NS(=O)(=O)c1cccc2nsnc12 [Example 2, (S)-2-[2-(Benzo[1,2,5]thiadiazole-4-sulfonylamino)-4-iodo-benzoylamino]-3-(3,4-dichloro-phenyl)-propionic acid]
behaviour in the muscle contraction assay (mode of antagonism) (CCK2 receptor): competitive antagonist
Kb (CCK2 receptor; CCK1 receptors blocked (e.g. 2-NAP), 24° C.): 1.58 nM
CCK1 pKi (CCK-1 receptor): 6.7
